Reference: patent US20210386783A1, “USE OF GLUCOSYLCERAMIDE SYNTHASE GENE-DEFICIENT T CELL AND THERAPEUTIC UTILIZATION THEREOF” (SCHOOL CORPORATION, AZABU VETERINARY MEDICINE EDUCATIONAL …, priority 2018, published 2021)

Key:
T cells = assay: Proliferation rate / toxicity of PPMP treatment on T cells (cell proliferation/cytotoxicity assay kit CK-1, Dojindo); format: cell-based, mouse; settings: isolated T cells
Method: (§1) The isolated T cells were treated with PPMP in concentrations of 0, 1, 5 and 10 μM for 24 hours, and then measuring the expression level of GM3 (left view) and the proliferation rate of the cells (right view).
(§2) Using Dynabeads Untouched Mouse T Cells kit (Thermo fisher Scientific), T cells were isolated from the excised spleen, and the T cells were then activated by IL-2 (30 U/mL) and Dynabeads Mouse T-Cell activator CD3-CD28 (Thermo fisher Scientific). Thereafter, the T cells were recovered over time, and the expression of a PD-1 gene was then analyzed by qPCR. With regard to the proliferation rate of the T cells after the activation, the proliferation rate was increased in the cells derived from the T cell-specific UGCG gene-deficient mice (FIG. 7A).
(§3) The T cells were isolated in the same manner as that of the above 3, and the isolated T cells were then treated with PPMP used as a UGCG inhibitor in various concentrations for 24 hours. Thereafter, the expression level of ganglioside GM3 was analyzed using a flow cytometer. […] Moreover, in order to examine the toxicity of the PPMP treatment on T cells, the proliferation rate of the T cells was measured using a cell proliferation/cytotoxicity assay kit (CK-1, Dojindo).

neuroblastoma cell line = settings: combination with fenretinide; cited from earlier work
[1] = tested on: acute leukemia-derived cell line ALL; settings: combination with fenretinide; cited from earlier work
UGCG = target: T1, UGCG (Mus musculus, UniProt O88693); assay: Expression level of ganglioside GM3 in isolated T cells after in vitro PPMP treatment (flow cytometer); format: cell-based; settings: isolated mouse spleen T cells, PPMP 0, 1, 5 and 10 μM for 24 hours
T1 construct: endogenous in cells; host or cells: primary T cells isolated from mouse spleen
T1 sequence (O88693 1-394): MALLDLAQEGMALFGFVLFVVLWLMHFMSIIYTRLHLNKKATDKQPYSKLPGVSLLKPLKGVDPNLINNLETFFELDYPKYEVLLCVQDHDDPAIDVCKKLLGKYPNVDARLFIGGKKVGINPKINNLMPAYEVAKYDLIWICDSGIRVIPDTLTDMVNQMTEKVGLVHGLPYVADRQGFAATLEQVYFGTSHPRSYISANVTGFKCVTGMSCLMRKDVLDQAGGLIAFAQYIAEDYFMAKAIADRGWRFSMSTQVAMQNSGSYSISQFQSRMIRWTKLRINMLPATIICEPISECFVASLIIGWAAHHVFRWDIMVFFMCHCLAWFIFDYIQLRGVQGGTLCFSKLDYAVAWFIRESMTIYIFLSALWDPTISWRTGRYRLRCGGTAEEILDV
Method: as §1, §2, §3

CCCCCCCCCCCCCCCC(=O)NC(CN1CCOCC1)C(O)c1ccccc1 (centres unmarked) [PPMP, 1-phenyl-2-hexadecanoylamino-3-morpholino-1-propanol]
proliferation rate of the T cells (T cells; PPMP 0, 1, 5 and 10 μM for 24 hours, concentration range of reducing glycolipids): did not influence on the proliferation rate
toxicity of PPMP on the cells (T cells; PPMP treatment for 24 hours): low
effect on cytotoxicity of fenretinide (4-HPR) (neuroblastoma cell line): synergistically enhances the cytotoxicity
effect on cytotoxicity of fenretinide (4-HPR) [1]: synergistically enhances the cytotoxicity
expression level of ganglioside GM3 (UGCG): reduced in a PPMP concentration-dependent manner
